Data reported in patent publication EP3431468B1, “USE OF ADIPONECTIN RECEPTOR AGONISTS IN TREATING DEPRESSION, ANXIETY AND NEUROINFLAMMATION” (CENTRE NATIONAL DE LA RECHERCHE SCIENTIFIQUE, priority 2017, dated 2019).

Assays:
[1] = system: presumed serotoninergic neurons; assay: Whole-cell patch-clamp recordings on brain slices, voltage clamp; type: cell-based, mouse
serotonin pathway = assay: 5-HT and 5-HIAA levels in dorsal raphe nucleus; type: in vivo; settings: corticosterone-exposed mice, chronic AdipoRon
[2] = system: corticosterone-treated mice; assay: Learned Helplessness (LH), chronic administration; type: in vivo; settings: chronic 1mg/kg ip daily
Method: (§1) Three well-established mouse models of depression-like behavior have been used in the present study namely i- the long-term corticosterone treatment in the drinking water (David, Samuels et al. 2009), ii- the peripheral administration of LPS (O'Connor, Lawson et al. 2009) iii- the ApN^-/- mice (Liu, Guo et al. 2012). For chronic AdipoRon treatment, the experimental protocol was as followed: • i- Five weeks old male mice (five/cage) received corticosterone (35mg/L dissolved in tap water containing 4 g/L CD) or vehicle alone ad libitum for during 7 consecutive weeks (David, Samuels et al. 2009). Corticosterone and vehicle solutions were changed every 3 days to prevent possible degradation. […]
(§2) All behavioral testing were conducted during the light phase (between 09:00 and 14:00 am) in compliance with the Institutional Animal Care and Use Committee of the University of Nice-Sophia Antipolis (permission number 010344.01 from the French "Ministère de l'Enseignement Supérieur et de la Recherche" granted to Dr. Joëlle Chabry). • Forced Swimming test (FST) - Mice were placed an inescapable transparent tank (20cm diameter, 30cm deep) filled with water (23°C ± 0.5) for six minutes as previously described by Porsolt et al. (1977). […] To initiate testing, mice were placed into the light side and activity was recorded for 5 minutes. […]

[3] = system: corticosterone-treated mice; assay: Social interaction test, chronic administration; type: in vivo; settings: chronic 1mg/kg ip daily
Method: as §1, §2

[4] = system: neurons of dorso-median raphe nucleus; assay: Whole-cell patch-clamp recordings on brain slices, current clamp; type: cell-based, mouse
[5] = Kinetic of AdipoRon in plasma and brain areas by HPLC coupled to MS/MS; type: in vivo; settings: for time of highest level of AdipoRon post ip injection: 1mg/kg ip; for level of AdipoRon: 3-hours post ip injection, 1mg/kg
AdipoRl = biological target: T1, AdipoRl (Homo sapiens, UniProt Q96A54); settings: Okada-Iwabu, Yamauchi et al. 2013; cited from earlier work
T1 sequence (Q96A54 1-375): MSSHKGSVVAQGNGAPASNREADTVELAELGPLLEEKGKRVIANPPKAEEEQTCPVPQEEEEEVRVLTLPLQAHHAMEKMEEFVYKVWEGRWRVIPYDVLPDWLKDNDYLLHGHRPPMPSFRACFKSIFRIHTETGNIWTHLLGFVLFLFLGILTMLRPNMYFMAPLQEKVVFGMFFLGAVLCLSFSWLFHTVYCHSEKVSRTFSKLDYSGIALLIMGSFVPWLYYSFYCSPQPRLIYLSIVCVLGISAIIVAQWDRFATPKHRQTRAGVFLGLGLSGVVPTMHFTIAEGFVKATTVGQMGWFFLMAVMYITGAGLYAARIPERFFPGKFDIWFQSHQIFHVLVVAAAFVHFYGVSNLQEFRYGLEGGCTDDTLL

AdipoR2 = biological target: T2, AdipoR2 (Homo sapiens, UniProt Q86V24); settings: Okada-Iwabu, Yamauchi et al. 2013; cited from earlier work
T2 sequence (Q86V24 1-386): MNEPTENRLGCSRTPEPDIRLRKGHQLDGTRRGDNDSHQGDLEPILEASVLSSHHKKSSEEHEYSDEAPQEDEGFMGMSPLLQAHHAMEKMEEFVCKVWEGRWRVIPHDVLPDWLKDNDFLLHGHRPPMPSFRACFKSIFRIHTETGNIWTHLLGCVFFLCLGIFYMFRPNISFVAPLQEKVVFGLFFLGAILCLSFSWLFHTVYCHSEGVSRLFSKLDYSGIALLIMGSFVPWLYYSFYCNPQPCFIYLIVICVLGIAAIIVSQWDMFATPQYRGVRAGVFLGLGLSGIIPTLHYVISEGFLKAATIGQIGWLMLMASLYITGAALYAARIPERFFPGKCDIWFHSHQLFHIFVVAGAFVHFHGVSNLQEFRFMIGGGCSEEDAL

[6] = system: corticosterone-treated mice; assay: Forced Swimming test (FST), chronic administration; type: in vivo; settings: chronic 1mg/kg ip daily
Method: as §1, §2

[7] = vehicle-treated mice (no corticosterone)

## O=C(COc1ccc(C(=O)c2ccccc2)cc1)NC1CCN(Cc2ccccc2)CC1 [AdipoRon, 2-(4-Benzoylphenoxy)-N-[1-(phenylmethyl)-4-piperidinyl]-acetamide]
[1]; CsCl internal solution instead of KCl solution
  effect of AdipoRon on current and membrane conductance: blocked
[1]; holding potential of -60 mV, KCl internal solution, 10 µM AdipoRon
  membrane conductance: decrease in membrane conductance
[1]; holding potential of -60 mV, KCl internal solution, n=9/9 presumed serotoninergic neurons, N=5 mice, 10 µM AdipoRon
  induced current: small inward current
Serotonin pathway
  5-HT level: without modifying the 5-HT level
  level of 5-HIAA: increased the level of 5-HIAA
  ratio 5-HIAA/5-HT: threefold increase
[2]; corticosterone-treated mice
  resignation-like behavior in the LH test (latency, failures to escape): reversed the effect of corticosterone
[2]; [7]
  resignation-like behavior in the LH test (latency, failures to escape): no significant effect
[3]; corticosterone-treated mice
  social interactions: reversed the effect of corticosterone
[3]; [7]
  social interactions: no significant effect
[4]; 1/7 presumed serotoninergic neuron, current clamp
  action potential discharge: no effect
[4]; 6 out of 7 presumed serotoninergic neurons, current clamp
  membrane potential: small depolarization
[4]; 6 out of 7 presumed serotoninergic neurons, current clamp, N= 4 mice
  action potential discharge frequency: increase in action potential discharge frequency
[4]; presumed non-serotoninergic neurons, 2/4
  membrane potential: hyperpolarization
[4]; presumed non-serotoninergic neurons, the other 2/4
  membrane potential: no effect
[5]; hippocampus
  time of highest level of AdipoRon post ip injection: thirty
  level of AdipoRon: barely detectable
[5]; hypothalamus
  time of highest level of AdipoRon post ip injection: thirty
  level of AdipoRon: barely detectable
[5]; ip injection, mice
  blood-brain barrier (BBB) crossing: crosses the BBB
[5]; plasma
  time of highest level of AdipoRon post ip injection: thirty
  level of AdipoRon: barely detectable
AdipoRl
  binding to adiponectin receptor: bind
AdipoR2
  binding to adiponectin receptor: bind
[6]; corticosterone-treated mice
  immobility duration in the FST (resignation): reversed the effect of corticosterone
[6]; [7]
  immobility duration in the FST (resignation): no significant effect
